“Also recorded” adds a separate entry of the source.
Test system: adult C. triangulifer
Assay: Chlordane residue (body burden), relative composition and metabolism in adult C. triangulifer by ECNI-MS
Format: in vivo, Centroptilum triangulifer (WCC 2 clone)
Settings: for metabolism by C. triangulifer: 4.3 μg/l technical chlordane; for amount of cis- and trans-chlordane relative to the nonachlors in C. triangulifer: compared to original distribution in technical chlordane; for relative composition of principal chlordane components or metabolites in mayflies: reared at 4.3 μg/l chlordane; for bioaccumulation in C. triangulifer: in vivo
Method: Surviving C. triangulifer individuals from the various controls and treatment groups were collected daily as subimagos (pre-adults) from emergence cages. Most subimagos emerging from a given vessel were immediately killed, measured, dried, and weighed. The viability of eggs obtained from females that had been chronically exposed as larvae to the various control and treatment conditions was also assessed. Thus, a few subimagos from certain treatments were kept alive for 24 h (n=8, 5, 8, 6, 10, and 6 for the 4.3, 9.4, 15.4, 27.4, and 56.3 μg/l and control groups, respectively), during which time they molted to the adult stage and were allowed to oviposit into individual glass jars for assessing hatch success as described above. A few adults from the 4.3 μg/l group were frozen intact at […] for later analysis for chlordane residue by electron capture negative ionization mass spectrometry (ECNI-MS). Chiordane residue in adults reared as larvae in 0.005, 0.05, and 0.5 μg/l treatments was also determined.
Chlordane was extracted from water samples by liquid-liquid extraction in a separatory funnel with three aliquots of hexane. PCB204 (2,2',3,4,4',5,6,6'-octachlorobiphenyl) was added as a surrogate standard before extraction. Each hexane aliquot was rinsed into the plastic sample bottle after transfer of the water sample and before its addition to the separatory funnel containing the water sample to ensure removal of chlordane adsorbed on the walls. The three hexane aliquots were combined and evaporated with a rotary evaporator and then further evaporated down to 100 μl under nitrogen for the final step. Chlordane components and metabolites were quantified from the relative responses of the surrogate standard and the authentic standards of heptachlor; trans- and cis-chlordane; trans- and cis-nonachlor; and the two metabolites, heptachlor epoxide and oxychlordane (n.b. cis-nonachlor was estimated from the response factor for trans-nonachlor). Adult body burdens and water concentrations of chlordane residue were calculated by comparison of the component areas with that of the surrogate standard to correct for losses during extraction and purification.
Adult mayflies from a given replicate vessel per treatment were dried and combined in lots of five to thirteen organisms for extraction and analysis. The mayflies were ground in 0.5 ml methanol after addition of the surrogate standard PCB204 and extracted by sonication with two 10 ml aliquots of a 1:1 methanol:methylene chloride mixture. Extracts were filtered through pasteur pipettes loaded with approximately 1.0 g of Na2 SO4 and clean glass wool. Chlordane components and the surrogate standard were separated from other components in the extract on 1% deactivated silica (0.8 g) microcolumns (organochlorines were eluted with 20% methylene chloride in hexane).
Five principal chlordane components and two metabolites (heptachlor, cis- and trans-chlordane, cis- and trans-nonachlor, heptachlor epoxide, and oxychlordane) were identified and quantified by ECNI-MS, using a Hewlett Packard 5988/RTE-A mass spectrometer equipped with a Hewlett Packard 5890 GC. Instrumental conditions were: GC -0.25 mm, 30 m DB-5 column (J & W Scientific) held at 60° C. for 2 min, then ramped to 180° C. at 20°/min, to 230° C. at 2°/min, to 280° C. at 10°/min, and then held at 280° C. for 10 min; MS-CH4 pressure 0.45 torr, source temperature 100° C.

ClC1=C(Cl)[C@]2(Cl)[C@@H]3C[C@@H](Cl)[C@@H](Cl)[C@@H]3[C@@]1(Cl)C2(Cl)Cl (relative stereo) [cis-chlordane]
metabolism by C. triangulifer: metabolized in part to oxychlordane; also recorded: capable of metabolizing or excreting both isomers equally
amount of cis- and trans-chlordane relative to the nonachlors in C. triangulifer: Reduced quantities
relative composition of principal chlordane components or metabolites in mayflies: 4±3%

ClC1=C(Cl)[C@]2(Cl)[C@@H]3C[C@H](Cl)[C@@H](Cl)[C@@H]3[C@@]1(Cl)C2(Cl)Cl (relative stereo) [trans-chlordane]
metabolism by C. triangulifer: metabolized in part to oxychlordane; also recorded: capable of metabolizing or excreting both isomers equally
amount of cis- and trans-chlordane relative to the nonachlors in C. triangulifer: Reduced quantities
relative composition of principal chlordane components or metabolites in mayflies: 5±3%

ClC1=C(Cl)[C@]2(Cl)[C@@H]3[C@@H](Cl)[C@@H](Cl)[C@@H](Cl)[C@@H]3[C@@]1(Cl)C2(Cl)Cl [cis-nonachlor]
metabolism by C. triangulifer: poorly metabolized
bioaccumulation in C. triangulifer: clear trend for the C. triangulifer mayfly to bioaccumulate
relative composition of principal chlordane components or metabolites in mayflies: 6±2%

ClC1=C(Cl)C2(Cl)C3C4OC4C(Cl)C3C1(Cl)C2(Cl)Cl (stereo not drawn) [heptachlor epoxide]
bioaccumulation in C. triangulifer: clear trend for the C. triangulifer mayfly to bioaccumulate
relative composition of principal chlordane components or metabolites in mayflies: 18±7%

ClC1=C(Cl)C2(Cl)C3C(Cl)C=CC3C1(Cl)C2(Cl)Cl (stereo not drawn) [heptachlor]
metabolism by C. triangulifer: completely metabolize

ClC1=C(Cl)[C@]2(Cl)[C@H]3[C@H]([C@@H](Cl)[C@]4(Cl)O[C@H]34)[C@@]1(Cl)C2(Cl)Cl [oxychlordane]
bioaccumulation in C. triangulifer: clear trend for the C. triangulifer mayfly to bioaccumulate
relative composition of principal chlordane components or metabolites in mayflies: 21±13%

ClC1=C(Cl)[C@]2(Cl)[C@@H]3[C@@H](Cl)[C@H](Cl)[C@@H](Cl)[C@@H]3[C@@]1(Cl)C2(Cl)Cl [trans-nonachlor]
metabolism by C. triangulifer: poorly metabolized
bioaccumulation in C. triangulifer: clear trend for the C. triangulifer mayfly to bioaccumulate
ratio of trans-nonachlor to cis-nonachlor in C. triangulifer (range): 6.2-8.6
relative composition of principal chlordane components or metabolites in mayflies: 45±11%

Source: patent US5665555A, “Method of determining the effect of a test substance on a clone of a Centroptilum triangulifer mayfly” (priority 1993, dated 1997)
